The text below walks through data of patent US20240109873A1, “ANTAGONISTS OF THE MUSCARINIC ACETYLCHOLINE RECEPTOR M4” (Vanderbilt University, priority 2020, published 2024).

For the test, the target named is T1, human mAChR M4 (Homo sapiens, UniProt P08173).
T1 construct: expressed in transfected cells; host or cells: CHO-K1 (ATCC), co-transfected with chimeric G protein Gqi5
T1 sequence (P08173 1-479): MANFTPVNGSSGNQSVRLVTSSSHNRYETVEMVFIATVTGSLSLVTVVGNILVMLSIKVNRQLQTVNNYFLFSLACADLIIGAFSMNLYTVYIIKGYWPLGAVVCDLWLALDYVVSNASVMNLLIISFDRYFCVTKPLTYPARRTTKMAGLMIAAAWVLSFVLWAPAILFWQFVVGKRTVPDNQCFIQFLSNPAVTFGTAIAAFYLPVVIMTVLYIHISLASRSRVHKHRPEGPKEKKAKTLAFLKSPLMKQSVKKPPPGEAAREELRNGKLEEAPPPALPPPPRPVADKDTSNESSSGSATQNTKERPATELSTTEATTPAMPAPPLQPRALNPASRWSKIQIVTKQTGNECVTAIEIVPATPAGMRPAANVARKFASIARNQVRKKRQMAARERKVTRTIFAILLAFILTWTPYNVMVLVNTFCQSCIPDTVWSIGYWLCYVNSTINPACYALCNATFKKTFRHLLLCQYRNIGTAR
The experiment in a line: mAChR M4 cell-based functional assay (calcium flux, antagonism of EC80 acetylcholine response, M4/Gqi5/CHO-K1 cells). As to conditions: for remaining activity at 30 µM: CHO-K1, % ACh maximum at 30 μM, read-out: Human M4 Emin; for pIC50: decrease of the response elicited by an EC80 concentration of acetylcholine, CHO-K1 cells, Gqi5. In a few lines: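 CHO-K1 cells stably expressing human M4 with chimeric Gqi5, loaded with Fluo-4 AM; calcium flux read on FDSS. Compounds (10-point, 1:3 curves) added first, then EC20 acetylcholine at 143 s and EC80 at 268 s. IC50 from decrease of EC80 acetylcholine response, four-parameter logistic fit.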
Background: Calcium assays in cells follow changes in intracellular calcium, usually with a dye or a luminescent sensor.

SMILES strings stand for the structures. pIC50: −log10 of the molar value.

For `[2H]C([2H])(C1CC(C)(C)OC(C)(C)C1)N1C[C@H]2C[C@H](Nc3ccc(-c4cnccc4C(F)(F)F)nn3)C[C@H]2C1` [Compound 32, (3aR,5s,6aS)-2-((2,2,6,6-tetramethyltetrahydro-2H-pyran-4-yl)methyl-d2)-N-(6-(4-(trifluoromethyl)pyridin-3-yl)pyridazin-3-yl)octahydrocyclopenta[c]pyrrol-5-amine], the remaining activity at 30 µM is 14% and the pIC50 is 7.62.
On to `[2H]C([2H])(C1CCOC(C)(C)C1)N1C[C@H]2C[C@H](Nc3ccc(-c4cnccc4C(F)(F)F)nn3)C[C@H]2C1` (stereo partly drawn) [Compound 33, (3aR,5s,6aS)-2-((2,2-dimethyltetrahydro-2H-pyran-4-yl)methyl-d2)-N-(6-(4-(trifluoromethyl)pyridin-3-yl)pyridazin-3-yl)octahydrocyclopenta[c]pyrrol-5-amine], for which the negative-log IC50 (pIC50) is 8.38. In addition, the “Human M4 Emin” value (% ACh maximum at 30 μM) is 7%.
Turning to `[2H]C([2H])(C1CCOCC1)N1C[C@H]2C[C@H](Nc3nnc(-c4cnccc4C(F)(F)F)c4sccc34)C[C@H]2C1` [Compound 34, N-((3aR,5s,6aS)-2-((tetrahydro-2H-pyran-4-yl)methyl-d2)octahydrocyclopenta[c]pyrrol-5-yl)-7-(4-(trifluoromethyl)pyridin-3-yl)thieno[2,3-d]pyridazin-4-amine], the remaining activity at 30 µM was determined as 3% and the pIC50 was 9.15.
As to `[2H]C([2H])(C1CCOCC1)N1C[C@H]2C[C@H](Nc3nnc(-c4cnccc4C(F)(F)F)c4ccsc34)C[C@H]2C1` [Compound 35, N-((3aR,5s,6aS)-2-((tetrahydro-2H-pyran-4-yl)methyl-d2)octahydrocyclopenta[c]pyrrol-5-yl)-4-(4-(trifluoromethyl)pyridin-3-yl)thieno[2,3-d]pyridazin-7-amine], the remaining activity at 30 µM was 4% and the pIC50 is 9.28.
For `[2H]C([2H])(N1C[C@H]2C[C@H](Nc3ccc(-c4cnccc4C(F)(F)F)nn3)C[C@H]2C1)C(F)(F)C1CCOCC1` [Compound 36, (3aR,5s,6aS)-2-(2,2-difluoro-2-(tetrahydro-2H-pyran-4-yl)ethyl-1,1-d2)-N-(6-(4-(trifluoromethyl)pyridin-3-yl)pyridazin-3-yl)octahydrocyclopenta[c]pyrrol-5-amine] the same measures were 6% and 7.41.
As to `[2H]C([2H])(N1C[C@H]2C[C@H](Nc3nnc(-c4cnccc4C(F)(F)F)cc3C)C[C@H]2C1)C(F)(F)C1CCOCC1` [Compound 37, (3aR,5s,6aS)-2-(2,2-difluoro-2-(tetrahydro-2H-pyran-4-yl)ethyl-1,1-d2)-N-(4-methyl-6-(4-(trifluoromethyl)pyridin-3-yl)pyridazin-3-yl)octahydrocyclopenta[c]pyrrol-5-amine], the remaining activity at 30 µM worked out at 4% and the pIC50 was 7.68.
For `[2H]C([2H])(C1CCOCC1)N1C[C@H]2C[C@H](Nc3ccc(-c4cccnc4C(F)F)nn3)C[C@H]2C1` [Compound 38, (3aR,5s,6aS)-N-(6-(2-(difluoromethyl)pyridin-3-yl)pyridazin-3-yl)-2-((tetrahydro-2H-pyran-4-yl)methyl-d2)octahydrocyclopenta[c]pyrrol-5-amine] the same measures were 5% and 9.32.
For `[2H]C([2H])(C1CCOCC1)N1C[C@H]2C[C@H](Nc3ccc(-c4cccnc4C(F)(F)F)nn3)C[C@H]2C1` [Compound 39, (3aR,5s,6aS)-2-((tetrahydro-2H-pyran-4-yl)methyl-d2)-N-(6-(2-(trifluoromethyl)pyridin-3-yl)pyridazin-3-yl)octahydrocyclopenta[c]pyrrol-5-amine] the same measures were 23% and 9.10.
For `FC(F)(F)c1ncccc1-c1ccc(N[C@H]2C[C@@H]3CN(CC4CCOCC4)C[C@@H]3C2)nn1` [Compound 40, (3aR,5s,6aS)-2-((tetrahydro-2H-pyran-4-yl)methyl)-N-(6-(2-(trifluoromethyl)pyridin-3-yl)pyridazin-3-yl)octahydrocyclopenta[c]pyrrol-5-amine] the same measures were 3% and 9.13.
`[2H]C([2H])(C1CCOCC1)N1C[C@H]2C[C@H](Nc3ccc(-c4cccnc4C(F)(F)F)nc3)C[C@H]2C1` [Compound 41, (3aR,5s,6aS)-2-((tetrahydro-2H-pyran-4-yl)methyl-d2)-N-(2′-(trifluoromethyl)-[2,3′-bipyridin]-5-yl)octahydrocyclopenta[c]pyrrol-5-amine]: the remaining activity at 30 µM is 2% and the pIC50 was 8.06.
For `[2H]C([2H])(CC1CCOCC1)N1C[C@H]2C[C@H](Nc3ccc(-c4cccnc4C(F)(F)F)nn3)C[C@H]2C1` [Compound 42, (3aR,5s,6aS)-2-(2-(tetrahydro-2H-pyran-4-yl)ethyl-1,1-d2)-N-(6-(2-(trifluoromethyl)pyridin-3-yl)pyridazin-3-yl)octahydrocyclopenta[c]pyrrol-5-amine] the same measures were 2% and 8.89.
As for `[2H]C([2H])(C1CCOC(C)(C)C1)N1C[C@H]2C[C@H](Nc3ccc(-c4cccnc4C(F)(F)F)nn3)C[C@H]2C1` (stereo partly drawn) [Compound 43, (3aR,5s,6aS)-2-((2,2-dimethyltetrahydro-2H-pyran-4-yl)methyl-d2)-N-(6-(2-(trifluoromethyl)pyridin-3-yl)pyridazin-3-yl)octahydrocyclopenta[c]pyrrol-5-amine], the remaining activity at 30 µM worked out at 2% and the pIC50 is 8.59.
In the same order, the values of `[2H]C1([2H])CC(C([2H])([2H])N2C[C@H]3C[C@H](Nc4ccc(-c5cccnc5C(F)(F)F)nn4)C[C@H]3C2)CC([2H])([2H])O1` [Compound 44, (3aR,5s,6aS)-2-((tetrahydro-2H-pyran-4-yl-2,2,6,6-d4)methyl-d2)-N-(6-(2-(trifluoromethyl)pyridin-3-yl)pyridazin-3-yl)octahydrocyclopenta[c]pyrrol-5-amine] are 2% and 8.85.
For `[2H]C([2H])(C1CC(C)(C)OC(C)(C)C1)N1C[C@H]2C[C@H](Nc3ccc(-c4cccnc4C(F)(F)F)nn3)C[C@H]2C1` [Compound 45, (3aR,5s,6aS)-2-((2,2,6,6-tetramethyltetrahydro-2H-pyran-4-yl)methyl-d2)-N-(6-(2-(trifluoromethyl)pyridin-3-yl)pyridazin-3-yl)octahydrocyclopenta[c]pyrrol-5-amine] the same measures were 2% and 7.83.
In the same order, the values of `[2H]C([2H])([C@H]1CCCOC1)N1C[C@H]2C[C@H](Nc3ccc(-c4cccnc4C(F)(F)F)nn3)C[C@H]2C1` [Compound 46, (3aR,5s,6aS)-2-(((R)-tetrahydro-2H-pyran-3-yl)methyl-d2)-N-(6-(2-(trifluoromethyl)pyridin-3-yl)pyridazin-3-yl)octahydrocyclopenta[c]pyrrol-5-amine] are 2% and 7.66.
Regarding `[2H]C([2H])([C@@H]1CCCOC1)N1C[C@H]2C[C@H](Nc3ccc(-c4cccnc4C(F)(F)F)nn3)C[C@H]2C1` [Compound 47, (3aR,5s,6aS)-2-(((S)-tetrahydro-2H-pyran-3-yl)methyl-d2)-N-(6-(2-(trifluoromethyl)pyridin-3-yl)pyridazin-3-yl)octahydrocyclopenta[c]pyrrol-5-amine], the remaining activity at 30 µM was determined as 2% and the pIC50 is 8.40.
For `[2H]C([2H])([C@@H]1CCCCO1)N1C[C@H]2C[C@H](Nc3ccc(-c4cccnc4C(F)(F)F)nn3)C[C@H]2C1` [Compound 48, (3aR,5s,6aS)-2-(((S)-tetrahydro-2H-pyran-2-yl)methyl-d2)-N-(6-(2-(trifluoromethyl)pyridin-3-yl)pyridazin-3-yl)octahydrocyclopenta[c]pyrrol-5-amine], the remaining activity at 30 µM is 2% and the pIC50 is 9.06.
In the same order, the values of `[2H]C([2H])([C@H]1CCCCO1)N1C[C@H]2C[C@H](Nc3ccc(-c4cccnc4C(F)(F)F)nn3)C[C@H]2C1` [Compound 49, (3aR,5s,6aS)-2-(((R)-tetrahydro-2H-pyran-2-yl)methyl-d2)-N-(6-(2-(trifluoromethyl)pyridin-3-yl)pyridazin-3-yl)octahydrocyclopenta[c]pyrrol-5-amine] are 2% and 9.26.
For `[2H]C([2H])(C1CCOCC1)N1C[C@H]2C[C@H](Nc3nnc(-c4cccnc4C(F)(F)F)cc3C)C[C@H]2C1` [Compound 50, (3aR,5s,6aS)-N-(4-methyl-6-(2-(trifluoromethyl)pyridin-3-yl)pyridazin-3-yl)-2-((tetrahydro-2H-pyran-4-yl)methyl-d2)octahydrocyclopenta[c]pyrrol-5-amine] the same measures were 1% and 9.06.

Broadly, the pIC50 is −log10 of the IC50, conventionally taken in molar units.
